From patent US20260374818A1, “CATIONIC PEPTIDES WITH BROAD SPECTRUM ACTIVITY” (priority 2023, published 2026)

Key:
[1] = system: P. aeruginosa PAO1 planktonic cells; test: MIC of antibiotics against planktonic cells, PAO1; format: cell-based, Pseudomonas aeruginosa; settings: for MIC against planktonic cells in BM2 medium: PAO1, BM2; for MIC against planktonic cells in MHB medium: PAO1, MHB
[2] = system: MRSA USA 300 LAC biofilms; test: Checkerboard biofilm synergy of AB103-D with antimicrobials, MRSA; format: cell-based, methicillin resistant Staphylococcus aureus; settings: for Biofilm MBIC in 10% TSB, 0.1% glucose: antibiotic alone, at least 70% reduction; for Biofilm MBIC in 10% TSB, 0.1% glucose / Fold decrease AB103-D / Fold decrease Antibiotic: MRSA; for FIC: antibiotic used with AB103-D, MRSA USA 300 LAC, ≤0.5 synergy; for Fold decrease AB103-D: in combination of antibiotic with AB103-D; for Fold decrease Antibiotic: in combination with AB103-D
[3] = system: MRSA USA 300 LAC planktonic cells; test: MIC of antibiotics against planktonic cells, MRSA; format: cell-based, methicillin resistant Staphylococcus aureus; settings: MRSA planktonic
[4] = system: P. aeruginosa PAO1 biofilms; test: Checkerboard biofilm synergy of AB103-D with antimicrobials, PAO1; format: cell-based, Pseudomonas aeruginosa; settings: for Antibiotic MBIC against biofilms: antibiotic alone, PAO1, BM2, at least 70% reduction; for FIC against biofilms: antibiotic used with AB103-D, PAO1, BM2, ≤0.5 synergy; for Fold Decrease in concentration of AB103-D: in combination of antibiotic with AB103-D; for Fold Decrease in concentration of AB103-D / Fold Decrease in concentration of Antibiotic: PAO1; for Fold Decrease in concentration of Antibiotic: in combination with AB103-D

Substance	MIC against planktonic cells in BM2 medium [1]	MIC against planktonic cells in MHB medium [1]	Biofilm MBIC in 10% TSB, 0.1% glucose [2]	FIC [2]	Fold decrease AB103-D [2]	Fold decrease Antibiotic [2]	MIC in 10% TSB, 0.1% glucose [3]	MIC in MHB medium [3]	Antibiotic MBIC against biofilms [4]	FIC against biofilms [4]	Fold Decrease in concentration of AB103-D [4]	Fold Decrease in concentration of Antibiotic [4]
Benzalkonium-C1	16 µg/mL	16 µg/mL	1	0.5	4-fold	4-fold	1	0.25 µg/mL	16 µg/mL	0.51	2-fold	128-fold
Colistin	4 µg/mL	1 µg/mL	2	0.63	2-fold	8-fold	4	8 µg/mL	4 µg/mL	0.63	8-fold	2-fold
Gentamicin	4 µg/mL	1 µg/mL	0.03	1.13	No	8-fold	0.06	0.06 µg/mL	4 µg/mL	0.53	2-fold	32-fold
Polymyxin B	2 µg/mL	2 µg/mL	2	0.5	4-fold	4-fold	2	4 µg/mL	2 µg/mL	0.56	16-fold	2-fold
Polyvinylpyrrolidone-Iodine	313 µg/mL	2500 µg/mL	156	0.63	2-fold	8-fold	156	2500 µg/mL	313 µg/mL	0.52	2-fold	64-fold
